The values that follow come from patent publication US7592345B2, “Piperazine and [1,4]diazepan derivatives as NK antagonists” (Hoffmann-La Roche Inc., priority 2007, dated 2009).

The assay deals with T1, recombinant human NK3 receptor (Homo sapiens, UniProt P29371).
T1 construct: expressed in transfected cells; host or cells: HEK293 cells (transient expression), membranes
T1 sequence (P29371 1-465): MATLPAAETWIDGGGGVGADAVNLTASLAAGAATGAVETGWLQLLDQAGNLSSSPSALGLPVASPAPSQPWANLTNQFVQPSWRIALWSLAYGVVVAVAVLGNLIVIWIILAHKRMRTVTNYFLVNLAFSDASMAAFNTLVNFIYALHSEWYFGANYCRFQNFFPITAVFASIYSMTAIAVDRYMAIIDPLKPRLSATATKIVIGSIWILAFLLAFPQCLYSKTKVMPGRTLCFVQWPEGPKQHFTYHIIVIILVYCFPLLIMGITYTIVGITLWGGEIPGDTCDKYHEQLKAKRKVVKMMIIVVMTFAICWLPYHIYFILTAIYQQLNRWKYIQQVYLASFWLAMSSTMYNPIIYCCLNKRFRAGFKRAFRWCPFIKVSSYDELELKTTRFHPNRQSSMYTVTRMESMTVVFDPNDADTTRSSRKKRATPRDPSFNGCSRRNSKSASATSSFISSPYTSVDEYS
As to the kind of experiment: [3H]SR142801 competition binding assay. The settings on record: [3H]SR142801, membranes from HEK293 cells transiently expressing recombinant human NK3 receptor; read-out: hNK3 Ki. A digest of the protocol:
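Membranes from HEK293 cells transiently expressing human NK3 were incubated 75 min at RT with [3H]SR142801 at its KD and inhibitor (0.0003-10 μM) in Tris-HCl pH 7.4/MnCl2/phosphoramidon/BSA. Nonspecific binding used 10 μM SB222200. Ki from Hill-fitted IC50 via Cheng-Prusoff, duplicate determinations.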
In general, Ki refers to the dissociation constant of the complex between target and ligand, obtained from inhibition or displacement. As for `C[C@H]1CN(CCC(C)(C(=O)N(C)Cc2cccc(F)c2)c2ccc(Cl)c(Cl)c2)CCN1S(C)(=O)=O` (stereo partly drawn) [Example 89, 2-(3,4-Dichloro-phenyl)-N-(3-fluoro-benzyl)-4-((S)-4-methanesulfonyl-3-methyl-piperazin-1-yl)-2,N-dimethyl-butyramide], the Ki amounted to 266 nM.

As for `C[C@H]1CN(CCC(C)(C(=O)N(C)Cc2ccc(C(F)(F)F)nc2)c2ccc(Cl)c(Cl)c2)CCN1S(C)(=O)=O` (stereo partly drawn) [Example 90, 2-(3,4-Dichloro-phenyl)-4-((S)-4-methanesulfonyl-3-methyl-piperazin-1-yl)-2,N-dimethyl-N-(6-trifluoromethyl-pyridin-3-ylmethyl)-butyramide], the Ki amounted to 525 nM.

For the compound `C[C@H]1CN(CCC(C)(C(=O)NCc2ccc(C(F)(F)F)nc2)c2ccc(Cl)c(Cl)c2)CCN1S(C)(=O)=O` (stereo partly drawn) [Example 91, 2-(3,4-Dichloro-phenyl)-4-((S)-4-methanesulfonyl-3-methyl-piperazin-1-yl)-2-methyl-N-(6-trifluoromethyl-pyridin-3-ylmethyl)-butyramide], the Ki stood at 906 nM.

For the compound `C[C@@H]1CN(CCC(C)(C(=O)NCc2ccc(C(F)(F)F)nc2)c2ccc(Cl)c(Cl)c2)CCN1S(C)(=O)=O` (stereo partly drawn) [Example 92, 2-(3,4-Dichloro-phenyl)-4-((R)-4-methanesulfonyl-3-methyl-piperazin-1-yl)-2-methyl-N-(6-trifluoromethyl-pyridin-3-ylmethyl)-butyramide], the Ki was 582 nM.

For `CC(CCN1CCCN(S(C)(=O)=O)CC1)(C(=O)NCc1ccc(C(F)(F)F)c(F)c1)c1ccc(Cl)c(Cl)c1` (stereo not drawn) [Example 95, 2-(3,4-Dichloro-phenyl)-N-(3-fluoro-4-trifluoromethyl-benzyl)-4-(4-methanesulfonyl-[1,4]diazepan-1-yl)-2-methyl-butyramide], the inhibition constant (Ki) was found to be 64.3 nM.

With `CN(Cc1ccc(C(F)(F)F)cc1)C(=O)C(C)(CCN1CCCN(S(C)(=O)=O)CC1)c1ccc(Cl)c(Cl)c1` (stereo not drawn) [Example 96, 2-(3,4-Dichloro-phenyl)-4-(4-methanesulfonyl-[1,4]diazepan-1-yl)-2,N-dimethyl-N-(4-trifluoromethyl-benzyl)-butyramide], the inhibition constant (Ki) was 24.5 nM.

On to `CN(Cc1ccc(Cl)cc1)C(=O)C(C)(CCN1CCCN(S(C)(=O)=O)CC1)c1ccc(Cl)c(Cl)c1` (stereo not drawn) [Example 97, N-(4-Chloro-benzyl)-2-(3,4-dichloro-phenyl)-4-(4-methanesulfonyl-[1,4]diazepan-1-yl)-2,N-dimethyl-butyramide], for which the Ki is 29.9 nM.

Turning to `CC(CCN1CCCN(S(C)(=O)=O)CC1)(C(=O)NCc1ccc(Cl)c(F)c1)c1ccc(Cl)c(Cl)c1` (stereo not drawn) [Example 98, N-(4-Chloro-3-fluoro-benzyl)-2-(3,4-dichloro-phenyl)-4-(4-methanesulfonyl-[1,4]diazepan-1-yl)-2-methyl-butyramide], the Ki stood at 66 nM.

With `CC(CCN1CCCN(S(C)(=O)=O)CC1)(C(=O)NCc1ccc(OC(F)(F)F)cc1)c1ccc(Cl)c(Cl)c1` (stereo not drawn) [Example 99, 2-(3,4-Dichloro-phenyl)-4-(4-methanesulfonyl-[1,4]diazepan-1-yl)-2-methyl-N-(4-trifluoromethoxy-benzyl)-butyramide], the Ki stood at 128 nM.

Turning to `CN(Cc1cccc(F)c1)C(=O)C(C)(CCN1CCCN(S(C)(=O)=O)CC1)c1ccc(Cl)c(Cl)c1` (stereo not drawn) [Example 100, 2-(3,4-Dichloro-phenyl)-N-(3-fluoro-benzyl)-4-(4-methanesulfonyl-[1,4]diazepan-1-yl)-2,N-dimethyl-butyramide], the Ki is 96.5 nM.

`CN(Cc1cccc(C(F)(F)F)c1)C(=O)C(C)(CCN1CCCN(S(C)(=O)=O)CC1)c1ccc(Cl)c(Cl)c1` (stereo not drawn) [Example 101, 2-(3,4-Dichloro-phenyl)-4-(4-methanesulfonyl-[1,4]diazepan-1-yl)-2,N-dimethyl-N-(3-trifluoromethyl-benzyl)-butyramide]: the inhibition constant Ki is 18.4 nM.

As for `CC(CCN1CCCN(S(C)(=O)=O)CC1)(C(=O)NCc1cccc(OC(F)(F)F)c1)c1ccc(Cl)c(Cl)c1` (stereo not drawn) [Example 102, 2-(3,4-Dichloro-phenyl)-4-(4-methanesulfonyl-[1,4]diazepan-1-yl)-2-methyl-N-(3-trifluoromethoxy-benzyl)-butyramide], the inhibition constant Ki stood at 123 nM.

Take `CN(Cc1cccc(Cl)c1)C(=O)C(C)(CCN1CCCN(S(C)(=O)=O)CC1)c1ccc(Cl)c(Cl)c1` (stereo not drawn) [Example 103, N-(3-Chloro-benzyl)-2-(3,4-dichloro-phenyl)-4-(4-methanesulfonyl-[1,4]diazepan-1-yl)-2,N-dimethyl-butyramide]: the inhibition constant (Ki) worked out at 41.8 nM.

For the compound `COc1ccc(CN(C)C(=O)C(C)(CCN2CCCN(S(C)(=O)=O)CC2)c2ccc(Cl)c(Cl)c2)cc1F` (stereo not drawn) [Example 104, 2-(3,4-Dichloro-phenyl)-N-(3-fluoro-4-methoxy-benzyl)-4-(4-methanesulfonyl-[1,4]diazepan-1-yl)-2,N-dimethyl-butyramide], the Ki amounted to 60.2 nM.

For the compound `COc1ccc(C(NC(=O)C(C)(CCN2CCCN(S(C)(=O)=O)CC2)c2ccc(Cl)c(Cl)c2)C2CC2)cc1` (stereo not drawn) [Example 105, N-[Cyclopropyl-(4-methoxy-phenyl)-methyl]-2-(3,4-dichloro-phenyl)-4-(4-methanesulfonyl-[1,4]diazepan-1-yl)-2-methyl-butyramide], the Ki amounted to 134 nM.

Regarding `CN(Cc1ccc(F)c(C(F)(F)F)c1)C(=O)C(C)(CCN1CCCN(S(C)(=O)=O)CC1)c1ccc(Cl)c(Cl)c1` (stereo not drawn) [Example 106, 2-(3,4-Dichloro-phenyl)-N-(4-fluoro-3-trifluoromethyl-benzyl)-4-(4-methanesulfonyl-[1,4]diazepan-1-yl)-2,N-dimethyl-butyramide], the Ki turned out to be 9.2 nM.

On to `CC(CCN1CCCN(S(C)(=O)=O)CC1)(C(=O)NCc1cc(C(F)(F)F)cc(C(F)(F)F)c1)c1ccc(Cl)c(Cl)c1` (stereo not drawn) [Example 107, N-(3,5-Bis-trifluoromethyl-benzyl)-2-(3,4-dichloro-phenyl)-4-(4-methanesulfonyl-[1,4]diazepan-1-yl)-2-methyl-butyramide], for which the Ki came out at 209 nM.

As to `COc1cc(CN(C)C(=O)C(C)(CCN2CCCN(S(C)(=O)=O)CC2)c2ccc(Cl)c(Cl)c2)ccc1OC(F)F` (stereo not drawn) [Example 108, 2-(3,4-Dichloro-phenyl)-N-(4-difluoromethoxy-3-methoxy-benzyl)-4-(4-methanesulfonyl-[1,4]diazepan-1-yl)-2,N-dimethyl-butyramide], the Ki turned out to be 89.5 nM.

For `Cc1ccc(CN(C)C(=O)C(C)(CCN2CCCN(S(C)(=O)=O)CC2)c2ccc(Cl)c(Cl)c2)cc1` (stereo not drawn) [Example 109, 2-(3,4-Dichloro-phenyl)-4-(4-methanesulfonyl-[1,4]diazepan-1-yl)-2,N-dimethyl-N-(4-methyl-benzyl)-butyramide], the Ki amounted to 33.5 nM.

For the compound `CN(C)c1ccc(CNC(=O)C(C)(CCN2CCCN(S(C)(=O)=O)CC2)c2ccc(Cl)c(Cl)c2)cc1` (stereo not drawn) [Example 110, 2-(3,4-Dichloro-phenyl)-N-(4-dimethylamino-benzyl)-4-(4-methanesulfonyl-[1,4]diazepan-1-yl)-2-methyl-butyramide], the inhibition constant (Ki) came out at 291 nM.

Consider `CN(Cc1ccc(Cl)c(C(F)(F)F)c1)C(=O)C(C)(CCN1CCCN(S(C)(=O)=O)CC1)c1ccc(Cl)c(Cl)c1` (stereo not drawn) [Example 111, N-(4-Chloro-3-trifluoromethyl-benzyl)-2-(3,4-dichloro-phenyl)-4-(4-methanesulfonyl-[1,4]diazepan-1-yl)-2,N-dimethyl-butyramide], for which the inhibition constant Ki was 6.7 nM.
